Values quoted from earlier work in patent publication US20210368801A1, “COMPOSITION FOR PREPARING HYPOCHLOROUS ACID WATER, AND TEST PAPER FOR DETERMINING HYPOCHLOROUS ACID WATER” (Wabian Co., Ltd., priority 2020, published 2021).

Experiments:
coronavirus = conditions: as an effective chlorine amount, according to NITE
[1] = electrolytic type; http://www.jsia.gr.jp/data/naclo.pdf

Row | SMILES | effective concentration for the coronavirus (coronavirus) | LD50 [1]
1 | OCl [hypochlorous acid] | 35 ppm | –
2 | OCl [sodium hypochlorite] | – | 1000 mg/kg
